According to ChEMBL document CHEMBL3751828, “Discovery of imidazo[1,2-a]-pyridine inhibitors of pan-PI3 kinases that are efficacious in a mouse xenograft model” (Bioorg Med Chem Lett, 2016):

Legend:
[1] = AUC (0 to last) in CD rat at […], po by LC-MS analysis; format: ADME, organism-based; parameters: dose 2.5 mg/kg, route oral, time 0 - last; settings: in vivo
[2] = Cmax in CD rat at […], po by LC-MS analysis; format: ADME, organism-based; parameters: dose 2.5 mg/kg, route oral; settings: in vivo
[3] = Apparent permeability of the compound from apical to basolateral side in human Caco2 cells; format: ADME, cell-based; settings: Caco-2

Structure (SMILES)	AUC(0-t) [1]	Cmax [2]	Papp A→B [3]
CC(=O)Nc1cn2cc(-c3cnc(N)c(OC(C)C)n3)ccc2n1	13 µM·h	1.3 µM	
CCOc1nc(-c2ccc3nc(NC(C)=O)cn3c2)cnc1N	7 µM·h	3.6 µM	
CC(=O)Nc1cn2cc(-c3cnc(N)c(OCC(F)(F)F)n3)ccc2n1	4 µM·h	1.5 µM	
CC(=O)Nc1cn2cc(-c3cnc(N)c(OC(C)C(F)(F)F)n3)ccc2n1 (racemic)	49 µM·h	3 µM	41 ×10⁻⁶ cm/s
COc1nc(-c2ccc3nc(NC(C)=O)cn3c2)cnc1N	15 µM·h	8.9 µM	
COCCOc1nc(-c2ccc3nc(NC(C)=O)cn3c2)cnc1N	14 µM·h	4 µM	
